Consider 2 compounds from patent US20240293305A1, “COMPOSITION WITH ANTIMICROBIAL OR ANTIFUNGAL ACTIVITY COMPRISING FERMENTED SCUTELLARIA BAICALENSIS EXTRACT, FERMENTED SALVIA MILTIORRHIZA EXTRACT AND FERMENTED DRYPTERIS CCRASSIRHIZOMA EXTRACT” (Sooy-K Co., LTD., priority 2023, published 2024).

Holding throughout (assay type): cell-based
The test system of experiment [1] is Candida albicans (C. albicans, KCTC 7965). The experiment can be described thus: Disc diffusion method, clear zone, C. albicans. As to conditions: Table 19 Antibiotic: ketoconazole (200 μg/mL). On the procedure:
(§1) As the strains used for antibacterial activity experiments, Gram-positive bacteria Staphylococcus aureus (S. aureus, KCTC 1916), Gram-negative Escherichia coli (E. coli, KCTC 2571), Pseudomonas aeruginosa (P. aeruginosa, KCTC 2513), Candida albicans (C. albicans, KCTC 7965), and Aspergillus niger (A. niger, KCTC 6196), which were purchased from the Korean collection for Type Cultures (KCTC), were stored and used (Table 5). The inhibitory zones of the extracts were measured by a test method of antibacterial activity to determine the presence or absence of antibacterial activity and to compare the degree of effectiveness of the extracts against the proliferation of bacteria. The antibacterial activity was measured by the disc diffusion method using a paper disc (size: 8 mm, Advantec, Toyo Roshi Kaisha, Ltd., Tokyo, Japan). The strains were each inoculated in an amount of one platinum loop, diluted in 4 mL of sterile water, mixed with a sterilized medium, and the mixture was poured into a prepared plate to be hardened. A 3% extract each was filtered (pore size: 0.4 μm, Advantec MFS, Inc., Tokyo, Japan), and 40 μL was taken and allowed to be absorbed onto a paper disc. After culturing for 24 hours at an appropriate temperature for each strain, the size of the transparent ring formed around the paper disc was measured. [table]
On the technique in general: A growth-free zone around the sample is the usual read-out of agar diffusion tests.

Experiment [2] concerns Aspergillus niger (A. niger, KCTC 6196). The experiment can be described thus: Disc diffusion method, clear zone, A. niger. The settings on record: KCTC6196, Table 19 Antibiotic: ketoconazole (200 μg/mL), read-out: Clear zone (ø, mm) A. niger. Here is the method: as §1
Experiment [3] deals with Escherichia coli (E. coli, KCTC 2571). The experiment in a line: Disc diffusion method, clear zone, E. coli. On the procedure: as §1
Experiment [4] deals with Staphylococcus aureus (S. aureus, KCTC 1916). The experiment in a line: Disc diffusion method, clear zone, S. aureus. Here is the method:
as §1

Experiment [5] concerns Pseudomonas aeruginosa (P. aeruginosa, KCTC 2513). The experiment can be described thus: Disc diffusion method, clear zone, P. aeruginosa. As to conditions: KCTC2513, Control Group Antibiotic: tetracycline (50 μg/mL), read-out: Clear Zone (ø, mm) P. aeruginosa. Here is the method: as §1

Structures are written as SMILES. Several values for one entry are separate records, joined by “and”; a condition that tells them apart may be missing. Equal entries are not always repeated.

Turning to `CC(=O)N1CCN(c2ccc(OCC3COC(Cn4ccnc4)(c4ccc(Cl)cc4Cl)O3)cc2)CC1` (centres unmarked) [ketoconazole], in experiment [1], the “Clear zone (ø, mm) C. albicans” value was “no antibacterial activity”. Besides, in experiment [2], the zone of inhibition at 200 µg/mL was 13.2 mm.

Take `CN(C)[C@@H]1C(O)=C(C(N)=O)C(=O)[C@@]2(O)C(O)=C3C(=O)c4c(O)cccc4[C@@](C)(O)[C@H]3C[C@@H]12` [tetracycline]: in experiment [3] (Control Group Antibiotic: tetracycline (50 μg/mL)), the “Clear Zone (ø, mm) E. coli” value is 19.6 mm and 18.2 mm and 18.5 mm and 20.7 mm and 15.7 mm and 17.8 mm and 14.2 mm. The zone of inhibition at 50 µg/mL was found to be 25.6 mm in experiment [3] (Escherichia coli, KCTC2571, Control Group Antibiotic: tetracycline (50 μg/mL), read-out: Clear Zone (ø, mm) E. coli); 22.8 mm in experiment [4] (KCTC1916, Control Group Antibiotic: tetracycline (50 μg/mL), read-out: Clear Zone (ø, mm) S. aureus); 9 mm in experiment [5]. Besides, the zone of inhibition at 100 µg/mL in experiment [3] (Escherichia coli, KCTC2571, Table 19 Antibiotic: tetracycline (100 μg/mL), read-out: Clear zone (ø, mm) E. coli) turned out to be 14.2 mm; in experiment [4] (KCTC1916, Table 19 Antibiotic: tetracycline (100 μg/mL), read-out: Clear zone (ø, mm) S. aureus), 18.2 mm.
